Patent US8519183B2, “Uses for amino acid anticonvulsants” (Research Corporation Technologies, Inc., priority 2000, dated 2013)
Where “and” joins values, the source holds several entries; their conditions need not be identical. Identical values can stand only once.

Columns and labels:
glycineb/D-serine site = molecular target: T1, glycineb/D-serine site (Rattus norvegicus, UniProt P35439); test: threshold extension in rats, reversal by D-serine; assay type: in vivo; settings: a glycine agonist, dose dependent fashion
T1 construct: from tissue; host or cells: living rat (in vivo)

NMDA receptor = NMDA receptor (Mus musculus, UniProt P35438); test: NMDA receptor agonism/antagonism after ICVT administration
Description: Test substance was administered ICVT (intracerebroventricular, 30 μg in 5 μl/mouse). The appearance of convulsions/mortality in 2 or more (≧2) of 3 ICR derived male or female mice weighing 22±2 gms within the 5 minutes thereafter would indicate NMDA receptor agonism. At a dose where no significant agonist activity was seen within 5 minutes, ability to inhibit NMDA (60 mg/kg IV)—induced Tonic convulsions/mortality in 2 or more (≧2) of 3 ICR derived male or female mice weighing 22±gms within the following 5 minutes indicated NMDA receptor antagonist activity.

[1] = molecular target: glycine strychnine-insensitive site of the NMDA receptor complex (Homo sapiens, UniProt Q05586); test: affinity at the glycine strychnine-insensitive site of the NMDA receptor complex; assay type: binding
[2] = tested on: ICR derived male or female mice; test: formalin induced hind paw licking; assay type: in vivo; settings: for Licking Time, Ave.: 5 mice
Description: The degree of pain is determined by measuring the decrease in the amount of time the animal spends licking the formalin-injected paw after administration of the drug.
Reduction of the induced hind paw licking time recorded during the following 20 to 30 minutes period by 50 percent or more (50%) indicated analgesic activity.

male ICR mice = test: radiant heat induced tail flick response; assay type: in vivo
Description: Groups of 4 male ICR mice weighing 22±2 gms were employed. A dose (30 mg/kg) of test compound dissolved in a vehicle of saline was administered intraperitoneally. The control group received vehicle alone. At pretreatment (0 minute) a focused beam of radiant heat was applied to the middle dorsal surface of the tail to elicit a tail flick response within 6-7.5 seconds in pre-treated animals. A maximum cut-off time of 15 seconds was set. The time required to elicit a pain response was recorded for each animal at 0 and 30 minutes following administration of test compound. Prolongation by 50 percent or more (≧50%) of the time required to elicit a tail flick indicated analgesic activity.

[3] = tested on: ICR derived male or female mice; test: Analgesia, Acetic Acid Writhing; assay type: in vivo; settings: for No. of Writhes, X ± SEM: group of 3 mice; for No. of Writhes (individual animal): one hour before acetic acid, 5 to 10 minute period; for % Inh.: relative to vehicle control
Description: In the first animal study in Example 1, the degree of pain experienced by the mice after injection by acetic acid is seen by the number of writhes. If the mice experience no pain, there is no writhing.
The protocol is based on the acetic acid writhing test in mice, developed by R. Koster, et al. Fed. Proc, 18, 412 […], and referred to a Koster test and Hunskarai, S., et al., J. Neuroscience Meth. 14: 69-76, 1985.
Reduction in the number of writhes by 50 percent or more (≧50%) per group of animals observed during the 5 to 10 minute period after acetic acid administration, relative to a vehicle treated control group, indicated analgesic activity.

[4] = molecular target: T2, serotonin 5-HT1A receptor (Rattus norvegicus, UniProt P19327); test: 5-MeODMT-induced head twitch; assay type: in vivo, rats
T2 construct: from tissue; host or cells: living Long Evans derived rat (in vivo)
T2 sequence (P19327 1-422): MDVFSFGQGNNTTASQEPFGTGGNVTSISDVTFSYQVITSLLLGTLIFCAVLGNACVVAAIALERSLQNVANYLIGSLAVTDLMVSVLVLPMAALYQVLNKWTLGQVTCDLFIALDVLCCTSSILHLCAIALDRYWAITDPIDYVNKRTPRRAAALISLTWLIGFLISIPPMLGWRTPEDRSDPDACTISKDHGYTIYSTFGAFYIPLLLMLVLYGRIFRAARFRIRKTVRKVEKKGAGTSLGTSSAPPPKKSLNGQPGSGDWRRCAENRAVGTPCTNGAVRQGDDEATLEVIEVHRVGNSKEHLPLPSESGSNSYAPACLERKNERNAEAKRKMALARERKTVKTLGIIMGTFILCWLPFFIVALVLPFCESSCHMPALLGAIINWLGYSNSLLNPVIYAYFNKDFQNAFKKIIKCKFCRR
Description: Test substance was administered PO (30 mg/kg) to a group of 3 Long Evans derived male or female rats weighing 150±20 gms one hour before injection of 5-MeODMT (5-methoxy-N,N-dimethyltryptamine, 3 mg/kg IP).

## COC[C@@H](NC(C)=O)C(=O)NCc1ccccc1 [Compound I, (R)-2-Acetamido-N-benzyl-3-methoxypropionamide]
glycineb/D-serine site
  effects on threshold extension in rats, reversal by D-serine: can be reversed by D-serine
NMDA receptor; 30 μg/mouse, after intracerebroventricular administration
  animals showing tremors without convulsions: 2 out of 3
NMDA receptor; ICVT 30 μg/mouse, N 3
  Agonism (mice with convulsions/mortality within 5 minutes): 0
  Antagonism (mice protected from NMDA 60 mg/kg IV induced tonic convulsions/mortality): 1
[1]
  IC50: 5.3 µM
[2]; 30 mg/kg PO
  % Inh.: 22%
  Licking Time, Ave.: 100 s
[2]; 100 mg/kg PO
  % Inh.: 100%
  Licking Time, Ave.: 0 s
[2]; 100 mg/kg PO, 20 to 30 minutes after formalin
  Licking Time, Indiv.: 0 s
[2]; 100 mg/kg, at 15 minutes after oral administration, mice
  animals showing slight convulsions: Compound I, at a dose of 100 mg/kg, 5 out of 5 animals showed slight convulsions at 15 minutes after oral administration.
Male ICR mice; 30 mg/Kg
  radiant heat induced tail flick response (in words): unaffected
Male ICR mice; 30 mg/kg IP
  % Inh.: 0%
Male ICR mice; 30 mg/kg IP, 30 minutes after administration, cut-off 15 seconds
  Response Time 30 Min. (individual animal): 5.8 and 5.0 and 6.0 and 6.2
Male ICR mice; 30 mg/kg IP, mean of 4 mice
  Response Time 30 Min., X: 5.8
Male ICR mice; 30 mg/kg IP, mean of 4 mice, pretreatment
  Response Time 0 Min., X: 6.7
Male ICR mice; 30 mg/kg IP, pretreatment (0 minute)
  Response Time 0 Min. (individual animal): 6.4 (2×) and 7.3 and 6.5
[3]; 30 mg/kg PO
  No. of Writhes, X ± SEM: X ± SEM 15 ± 1.7
  No. of Writhes (individual animal): 18 and 12 and 15
  % Inh.: 4%
[3]; 100 mg/kg PO
  No. of Writhes, X ± SEM: X ± SEM 0 ± 0
  No. of Writhes (individual animal): 0
  % Inh.: 100%
[3]; 100 mg/kg, 15 minutes after oral administration, mice
  animals showing slight convulsions: Compound I, at a dose of 100 mg/kg, 3 out of 3 animals showed slight convulsions 15 minutes after oral administration.
[4]; 30 mg/Kg PO
  potentiation of 5-MeODMT-induced heat twitch: No potentiation
[4]; 30 mg/kg PO, 3 rats
  Head Twitch, Ave.: 1
